Activity, IC50 and inhibition data for eight compounds are collected here from ChEMBL document CHEMBL4339189, “Dissymmetric pyridyl-substituted 3,5-bis(arylidene)-4-piperidones as anti-hepatoma agents by inhibiting NF-κB pathway activation” (Eur J Med Chem, 2019).

The term IC50 denotes the concentration needed to halve the response being measured.

The subject of data set [1] is HepG2. Description: Cytotoxicity against human HepG2 cells assessed as reduction in cell viability incubated for 24 hrs by MTT assay. Type of data set: functional, cell-based. The note with it: for IC50: HepG2, 24 h. For orientation: Tetrazolium dyes change colour on reduction, which living cells bring about.
The subject of a further data set is QGY-7703. Description: Cytotoxicity against human QGY7703 cells assessed as reduction in cell viability incubated for 24 hrs by MTT assay. Type of data set: functional, cell-based. The settings on record: for IC50: QGY-7703, 24 h.
The next data set relates to SMMC-7721. Description: Cytotoxicity against human SMMC7721 cells assessed as reduction in cell viability incubated for 24 hrs by MTT assay. Type of data set: functional, cell-based. The settings on record: for IC50: SMMC-7721, 24 h.
The nature of data set [2]: Cytotoxicity against human HHL5 cells assessed as reduction in cell viability incubated for 24 hrs by MTT assay. In kind it is cell-based. The note with it: HHL-5, 24 h.
Data set [3] concerns HepG2. Description: Antitumor activity against human HepG2 cells xenografted in Balb/c nude mouse assessed as tumor volume level at 10 mg/kg, ip administered every 2 days for 20 days and measured every 2 days. In kind it is functional. (In xenograft studies the graft and the host belong to different species.)
Data set [4] has as its system HepG2. Description: Antitumor activity against human HepG2 cells xenografted in Balb/c nude mouse assessed as induction of incomplete cells at 10 mg/kg, ip administered every 2 days for 20 days and measured every 2 days by H and E staining based assay. In kind it is functional, organism-based.
The subject of data set [5] is HepG2. Description: Antitumor activity against human HepG2 cells xenografted in Balb/c nude mouse assessed as induction of wrinkled abnormalities on cell morphology at 10 mg/kg, ip administered every 2 days for 20 days and measured every 2 days by H and E staining based assay. Type of data set: functional, organism-based.
The test system of data set [6] is HepG2. Description: Induction of apoptosis in human HepG2 cells xenografted in Balb/c nude mouse assessed as reduction in Bcl-2 protein expression at 10 mg/kg, ip administered every 2 days for 20 days and measured every 2 days by immunohistochemistry. Type of data set: functional, organism-based.
A further data set deals with Mus musculus. In words: Antiinflammatory activity in human HepG2 cells xenografted Balb/c nude mouse assessed as reduction in TNFalpha protein expression at 10 mg/kg, ip administered every 2 days for 20 days and measured every 2 days by immunohistochemistry. Type of data set: functional, organism-based.
The next data set deals with L02. Description: Cytotoxicity against human LO2 cells assessed as reduction in cell viability incubated for 24 hrs by MTT assay. The note with it: L02, 24 h. Type of data set: cell-based.
For data set [7], the system named is RAW264.7. In words: Cytotoxicity against mouse RAW264.7 cells assessed as reduction in cell viability at 6.0 uM incubated for 24 hrs by MTT assay. The note with it: raw264.7, 24 h. In kind it is cell-based.
The subject of data set [8] is RAW264.7. In words: Antiinflammatory activity in mouse RAW264.7 cells assessed as inhibition of LPS-stimulated TNF-alpha production at 6.0 uM preincubated for 2 hrs followed by LPS stimulaton measured after 22 hrs by ELISA relative to control. In kind it is functional. (ELISA stands for enzyme-linked immunosorbent assay.)
For data set [9], the system named is RAW264.7. In words: Antiinflammatory activity in mouse RAW264.7 cells assessed as inhibition of LPS-stimulated IL-6 production 6.0 uM preincubated for 2 hrs followed by LPS stimulaton measured after 22 hrs by ELISA relative to control. In kind it is functional.

Active and inactive are the calls of the source. The calls are words filed in the database; no cut-off is given here.

Consider `COc1cccc2c1C(=O)c1c(O)c3c(c(O)c1C2=O)C[C@@](O)(C(=O)CO)C[C@@H]3O[C@H]1C[C@H](N)[C@H](O)[C@H](C)O1` [DOXORUBICIN], for which the Activity entry in the data set with HepG2 [1] was “Dose-dependent effect”; in the data set on QGY-7703, “Dose-dependent effect”; with SMMC-7721, “Dose-dependent effect”; with HepG2 [3] it was less than 200 mm3. Moreover, the values for the IC50 (in the data set with QGY-7703; in the data set on SMMC-7721; in [2]) were 1.37 µM, 2.75 µM and 12.2 µM, respectively. Further, the outcome with HepG2 [4], in the data set on HepG2 [5], in the data set on HepG2 [6] and in the data set with Mus musculus was Active.

On to `N#Cc1ccc(S(=O)(=O)N2C/C(=C\c3cccnc3)C(=O)/C(=C/c3ccccc3F)C2)cc1`, for which the 50% inhibitory concentration (IC50) with HepG2 [1] was 6.6 µM; in the data set with QGY-7703, 15.8 µM; in the data set with SMMC-7721, 15.4 µM; in data set [2], 15.5 µM; in the data set on L02 it was more than 20 µM. Moreover, in the data set on RAW264.7 [7], the Activity entry is “Non-Toxic”. The inhibition result with RAW264.7 [8] and in the data set on RAW264.7 [9] was “inactive” throughout.

`O=C1/C(=C/c2cccnc2)CNC/C1=C\c1ccccc1F`: the IC50 in the data set on HepG2 [1] is 21 µM; with QGY-7703, 8.89 µM; with SMMC-7721, more than 20 µM; in [2], 14.6 µM; in the data set with L02, 15.9 µM. In addition, the Activity entry with RAW264.7 [7] is on record as “Non-Toxic”. Besides, the inhibition entry in the data set on RAW264.7 [8] and in the data set with RAW264.7 [9] was “inactive” throughout.

Take `O=C1/C(=C/c2cccnc2)CN(S(=O)(=O)c2ccc(F)cc2)C/C1=C\c1ccccc1C(F)(F)F`: the IC50 in the data set with HepG2 [1] turned out to be 2.34 µM; in the data set on QGY-7703, 6.03 µM; in the data set with SMMC-7721, 6.39 µM; in [2], 12.1 µM; in the data set on L02, 16.1 µM. Also, in the data set on RAW264.7 [7], the Activity result is “Non-Toxic”. Moreover, the inhibition result in the data set on RAW264.7 [8] and in the data set on RAW264.7 [9] was “Active” throughout.

Take `CN1C/C(=C\c2ccncc2)C(=O)/C(=C/c2ccc(C(F)(F)F)cc2)C1`: the IC50 was 8.2 µM in the data set on HepG2 [1]; 10.4 µM with QGY-7703; 17.7 µM with SMMC-7721; 12.2 µM in data set [2]; 17.4 µM with L02. Moreover, the Activity entry in the data set on RAW264.7 [7] is “Non-Toxic”. In addition, the inhibition result with RAW264.7 [8] and in the data set with RAW264.7 [9] was “Active” in each case.

Turning to `O=C1/C(=C/c2ccncc2)CN(S(=O)(=O)c2ccc(F)cc2)C/C1=C\c1ccccc1F`, the IC50 in the data set with HepG2 [1] is 20.3 µM; in the data set on QGY-7703, 9.1 µM; in the data set with SMMC-7721 it was more than 20 µM; in data set [2] it was 15.4 µM; with L02 it was 15.6 µM. In the data set with RAW264.7 [7], the Activity entry is listed as “Non-Toxic”. For the same compound, the inhibition entry in the data set with RAW264.7 [8] and in the data set on RAW264.7 [9] was “inactive” in each case.

In the case of `O=C1/C(=C/c2ccncc2)CN(S(=O)(=O)c2ccc(C(F)(F)F)cc2)C/C1=C\c1ccccc1F`, the concentration for half-maximal inhibition (IC50) is 4.03 µM with HepG2 [1]; 9.5 µM in the data set with QGY-7703; 11.1 µM with SMMC-7721; 13.4 µM in [2]; 18.6 µM in the data set with L02. In addition, the Activity entry in the data set with RAW264.7 [7] is “Non-Toxic”. Besides, the inhibition entry in the data set on RAW264.7 [8] and in the data set on RAW264.7 [9] was “Active” in each case.

Consider `O=C1/C(=C/c2cccnc2)CN(S(=O)(=O)c2ccc(Cl)cc2)C/C1=C\c1ccccc1F`, for which the IC50 in the data set with HepG2 [1] is 12.4 µM; in the data set with QGY-7703, 12.1 µM; in the data set with SMMC-7721 it was 16.1 µM; in data set [2], more than 20 µM; with L02, more than 20 µM. Also, in the data set on RAW264.7 [7], the Activity entry is “Non-Toxic”. The inhibition entry in the data set on RAW264.7 [8] and with RAW264.7 [9] was “inactive” throughout.
